Legend:
[1] = test system: primary human mesenchymal stem cells (hMSCs); assay: Tenocyte differentiation screening in hMSCs (SCXA-positive cells, 4 days); format: cell-based; settings: 96 h, fold change over DMSO
Excerpt: Representative compounds were screened using primary human mesenchymal stem cells (hMSCs) to determine their ability to induce tenocyte differentiation (process by which tendon is developed).
Primary human mesenchymal stem cells (hMSCs) were purchased from Lonza (Walkersville, Md.) and expanded in Mesenchymal Stem Cell Growth Media (Lonza). Cells between passage 3 and 6 were used for the experiments.
Cells were fixed using 4% formaldehyde (Electron Microscopy Sciences), and stained with anti-Sclerasis (anti-SCXA) antibodies (Abgent, San Diego, Calif.) [Webb S., et. al., Retinoic acid receptor signaling preserves tendon stem cell characteristics and prevents spontaneous differentiation in vitro, Stem Cell Research & Therapy 2016, 7:45] overnight at 4° C. […] Number of cells positive for SCXA in each well was quantified using the Celllnsight CX5. Data was normalized to the average of 12 DMSO treated wells on the same plate using Dotmatics Studies module. The normalized averages (fold change over DMSO) of 3 replicate wells for each compound concentration were calculated. Due to solubility limitations of some of the compounds, values for higher doses were manually corrected and curve fitting and EC50 determinations were performed using Dotmatics Studies.
EC50 for each compound is reported.

[2] = test system: Wnt-responsive promoter driving firefly luciferase in SW480 cells; assay: Wnt reporter (SP5 promoter-luciferase) screening assay in SW480 cells; format: cell-based; settings: Homo sapiens, 24-40 h, top concentration ten micromolar
Excerpt: Another screening assay for Wnt activity is described as follows. Reporter cell lines can be generated by stably transducing cells of cancer cell lines (e.g., colon cancer) with a lentiviral construct that include a Wnt-responsive promoter driving expression of the firefly luciferase gene.
Lentiviral constructs can be made in which the SP5 promoter, a promoter having eight TCF/LEF binding sites derived from the SP5 promoter, is linked upstream of the firefly luciferase gene. The lentiviral constructs can also include a hygromycin resistance gene as a selectable marker. The SP5 promoter construct can be used to transduce SW480 cells, a colon cancer cell line having a mutated APC gene that generates a truncated APC protein, leading to de-regulated accumulation of β-catenin.
Cultured SW480 cells bearing a reporter construct can be distributed at approximately 10,000 cells per well into 96 well or 384 well plates. Compounds from a small molecule compound library can then be added to the wells in half-log dilutions using a ten micromolar top concentration. A series of control wells for each cell type receive only buffer and compound solvent. Twenty-four to forty hours after the addition of compound, reporter activity for luciferase can be assayed, for example, by addition of the BrightGlo luminescence reagent (Promega) and the Victor3 plate reader (Perkin Elmer). Readings can be normalized to DMSO only treated cells, and normalized activities can then be used in the EC50 calculations.

In the case of `CN(C)C(=O)Nc1cncc(-c2ccc3[nH]nc(C(=O)Nc4cccnc4)c3c2)c1` [compound 1, 5-(5-(3,3-dimethylureido)pyridin-3-yl)-N-(pyridin-3-yl)-1H-indazole-3-carboxamide], the EC50 [1] is reported as greater than 100 µM and the EC50 [2] is reported as 175 nM.
Work on `O=C(Nc1ccc(C(F)(F)F)nc1)c1n[nH]c2ccc(-c3cncc(F)c3)cc12` [compound 2, 5-(5-fluoropyridin-3-yl)-N-(6-(trifluoromethyl)pyridin-3-yl)-1H-indazole-3-carboxamide] yielded an EC50 [1] greater than 100 µM and an EC50 [2] of 5000 nM.
Molecule `O=C(Nc1ccc(C(F)(F)F)nc1)c1n[nH]c2ccc(-c3cccnc3)cc12` [compound 3, 5-(Pyridin-3-yl)-N-(6-(trifluoromethyl)pyridin-3-yl)-1H-indazole-3-carboxamide] has an EC50 [1] greater than 100 µM and an EC50 [2] of 200 nM.
In the case of `O=C(Nc1cccnc1)c1n[nH]c2ccc(-c3cccnc3)cc12` [compound 4, N,5-di(pyridin-3-yl)-1H-indazole-3-carboxamide], the EC50 [1] is reported as 4.55 µM and the EC50 [2] is reported as 160 nM.
`O=C(Nc1cccc(-c2cccc(F)c2)c1)c1n[nH]c2ccc(-c3cccnc3)cc12` [compound 5, N-(3′-Fluorobiphenyl-3-yl)-5-(pyridin-3-yl)-1H-indazole-3-carboxamide] gave an EC50 [1] greater than 100 µM and an EC50 [2] of no less than 10000 nM.
With `CN(C)Cc1cncc(NC(=O)c2n[nH]c3ccc(-c4cccnc4)cc23)c1` [compound 7, N-(5-((Dimethylamino)methyl)pyridin-3-yl)-5-(pyridin-3-yl)-1H-indazole-3-carboxamide] the EC50 [1] was 6.94 µM and the EC50 [2] was 110 nM.
With `O=C(Nc1ccc(CN2CCCC2)nc1)c1n[nH]c2ccc(-c3cccnc3)cc12` [compound 8, 5-(Pyridin-3-yl)-N-(6-(pyrrolidin-1-ylmethyl)pyridin-3-yl)-1H-indazole-3-carboxamide] the EC50 [1] was 4.98 µM and the EC50 [2] was 130 nM.
With `O=C(Nc1cncc(-c2cccc(F)c2)c1)c1n[nH]c2ccc(-c3cccnc3)cc12` [compound 9, N-(5-(3-Fluorophenyl)pyridin-3-yl)-5-(pyridin-3-yl)-1H-indazole-3-carboxamide] the EC50 [1] was greater than 100 µM and the EC50 [2] was no less than 10000 nM.
`CN1CCN(c2ncccc2NC(=O)c2n[nH]c3ccc(-c4cccnc4)cc23)CC1` [compound 11, N-(2-(4-Methylpiperazin-1-yl)pyridin-3-yl)-5-(pyridin-3-yl)-1H-indazole-3-carboxamide] showed an EC50 [1] greater than 100 µM and an EC50 [2] of no less than 10000 nM.
`CN1CCN(c2ccc(NC(=O)c3n[nH]c4ccc(-c5cccnc5)cc34)cn2)CC1` [compound 12, N-(6-(4-Methylpiperazin-1-yl)pyridin-3-yl)-5-(pyridin-3-yl)-1H-indazole-3-carboxamide] showed an EC50 [1] of 5 µM and an EC50 [2] of 63 nM.
`O=C(Nc1cccnc1)c1n[nH]c2ccc(-c3cncc(F)c3)cc12` [compound 13, 5-(5-fluoropyridin-3-yl)-N-(pyridin-3-yl)-1H-indazole-3-carboxamide] was tested, and the EC50 [1] was greater than 100 µM and the EC50 [2] was 1250 nM.
Work on `O=C(Nc1ccnnc1)c1n[nH]c2ccc(-c3cccnc3)cc12` [compound 14, N-(Pyridazin-4-yl)-5-(pyridin-3-yl)-1H-indazole-3-carboxamide] yielded an EC50 [1] of 50.4 µM and an EC50 [2] of 106 nM.
For `CN1CCN(Cc2ccc(NC(=O)c3n[nH]c4ccc(-c5cccnc5)cc34)cn2)CC1` [compound 15, N-(6-((4-Methylpiperazin-1-yl)methyl)pyridin-3-yl)-5-(pyridin-3-yl)-1H-indazole-3-carboxamide], the EC50 [1] was 4.8 µM and the EC50 [2] was 37 nM.
`O=C(Nc1cccnc1)c1n[nH]c2ccc(-c3cncc(C(F)(F)F)c3)cc12` [compound 16, N-(pyridin-3-yl)-5-(5-(trifluoromethyl)pyridin-yl)-1H-indazole-3-carboxamide] showed an EC50 [1] of 35.8 µM and an EC50 [2] of no less than 10000 nM.
With `O=C(Nc1ccc(Oc2ccccc2F)nc1)c1n[nH]c2ccc(-c3cccnc3)cc12` [compound 18, N-(6-(2-fluorophenoxy)pyridin-3-yl)-5-(pyridin-3-yl)-1H-indazole-3-carboxamide] the EC50 [1] was 5.38 µM and the EC50 [2] was 122 nM.
`O=C(Nc1ccc(Oc2cccc(F)c2)nc1)c1n[nH]c2ccc(-c3cccnc3)cc12` [compound 19, N-(6-(3-Fluorophenoxy)pyridin-3-yl)-5-(pyridin-3-yl)-1H-indazole-3-carboxamide] gave an EC50 [1] greater than 100 µM and an EC50 [2] of 107 nM.
With `O=C(Nc1ccc(Oc2ccc(F)cc2)nc1)c1n[nH]c2ccc(-c3cccnc3)cc12` [compound 20, N-(6-(4-Fluorophenoxy)pyridin-3-yl)-5-(pyridin-3-yl)-1H-indazole-3-carboxamide] the EC50 [1] was 12 µM and the EC50 [2] was 118 nM.
In the case of `O=C(Nc1cncc(F)c1)c1n[nH]c2ccc(-c3cccnc3)cc12` [compound 23, N-(5-Fluoropyridin-3-yl)-5-(pyridin-3-yl)-1H-indazole-3-carboxamide], the EC50 [1] is reported as greater than 100 µM and the EC50 [2] is reported as 120 nM.
`CN(C)Cc1cncc(-c2ccc3[nH]nc(C(=O)Nc4ccc(C(F)(F)F)nc4)c3c2)c1` [compound 26, 5-(5-((Dimethylamino)methyl)pyridin-3-yl)-N-(6-(trifluoromethyl)pyridin-3-yl)-1H-indazole-3-carboxamide] gave an EC50 [1] greater than 100 µM and an EC50 [2] of 210 nM.
`O=C(Nc1cccnc1)c1n[nH]c2ccc(-c3cncc(NC(=O)N4CCOCC4)c3)cc12` [compound 32, N-(5-(3-(Pyridin-3-ylcarbamoyl)-1H-indazol-5-yl)pyridin-3-yl) morpholine-4-carboxamide] was tested, and the EC50 [1] was greater than 100 µM and the EC50 [2] was 1250 nM.
`CN(C)Cc1cncc(-c2ccc3[nH]nc(C(=O)Nc4ccc(Oc5ccccc5F)nc4)c3c2)c1` [compound 36, 5-(5-((Dimethylamino)methyl)pyridin-3-yl)-N-(6-(2-fluorophenoxy)pyridin-3-yl)-1H-indazole-3-carboxamide] gave an EC50 [1] greater than 100 µM and an EC50 [2] of 275 nM.
In the case of `Cn1nc(NC(=O)c2n[nH]c3ccc(-c4cccnc4)cc23)cc1C(F)(F)F` [compound 37, N-(1-Methyl-5-(trifluoromethyl)-1H-pyrazol-3-yl)-5-(pyridin-3-yl)-1H-indazole-3-carboxamide], the EC50 [1] is reported as greater than 100 µM and the EC50 [2] is reported as 1120 nM.
Molecule `CN1CCN(c2ccc(NC(=O)c3n[nH]c4ccc(-c5cncc(NC(=O)C6CC6)c5)cc34)cn2)CC1` [compound 38, 5-(5-(Cyclopropanecarboxamido)pyridin-3-yl)-N-(6-(4-methylpiperazin-1-yl)pyridin-3-yl)-1H-indazole-3-carboxamide] has an EC50 [1] of 2.84 µM and an EC50 [2] of 120 nM.
For `O=C(Nc1ccc(C(F)(F)F)nc1)c1n[nH]c2ccc(-c3cncc(NC(=O)C4CC4)c3)cc12` [compound 39, 5-(5-(Cyclopropanecarboxamido)pyridin-3-yl)-N-(6-(trifluoromethyl)pyridin-3-yl)-1H-indazole-3-carboxamide], the EC50 [1] was greater than 100 µM and the EC50 [2] was 65 nM.
Work on `CN(C)Cc1cncc(-c2ccc3[nH]nc(C(=O)Nc4cccnc4)c3c2)c1` [compound 40, 5-(5-((Dimethylamino)methyl)pyridin-3-yl)-N-(pyridin-3-yl)-1H-indazole-3-carboxamide] yielded an EC50 [1] of 5.17 µM and an EC50 [2] of 65 nM.
Work on `O=C(Nc1cccnc1)c1n[nH]c2ccc(-c3cncc(NC(=O)C4CC4)c3)cc12` [compound 41, 5-(5-(Cyclopropanecarboxamido)pyridin-3-yl)-N-(pyridin-3-yl)-1H-indazole-3-carboxamide] yielded an EC50 [1] of 8.12 µM and an EC50 [2] of 67 nM.
